# Data taken from patent US7449545B2, “Antimicrobial bolisin peptides” (IPF Pharmaceuticals GmbH, priority 2001, dated 2008).
# Ends that are not written are not given here.
# What was measured:
# Type in all cases: cell-based
# [1] = system: Enterococcus faecalis ATCC 51299 (vancomycin-resistant); conditions: ATCC 51299, 2 h
# Text: (§1) The bolisin analogues of the present invention were examined for their suitability as antibiotic therapeutical agents by means of various biological tests. Thus, the chemically synthesized peptides were examined for their antimicrobial effectiveness against three Gram-positive and three Gram-negative bacterial strains as well as against a yeast.
# (§2) The following microorganisms were used: • Gram-positive: Staphylococcus aureus ATCC 25923 • Enterococcus faecalis ATCC 51299 (vancomycin-resistant) • Streptococcus pneumoniae DSM 11865 (penicillin-resistant) • Gram-negative: Escherichia coli ATCC 25922 • Pseudomonas aeruginosa ATCC 9027 • Klebsiella pneumoniae ATCC 10031 • Yeast: Candida albicans ATCC 10231
# (§3) The antibiotic activity of bolisin analogues was examined by determining the minimum inhibition concentration. […] This method allows to obtain a quantitative result about the antimicrobial potency of the peptides. These examinations were performed by analogy with the recommendations (M7-A3) edited by the NCCLS (National Committee for Clinical Laboratory Standards) by applying a dilution test in a liquid medium using chemically synthesized peptides (peptide sequences according to claims 1 to 3). Mueller Hinton Broth was used as the test medium according to the NCCLS recommendations unless indicated otherwise. […] The minimum inhibition concentrations are stated in [μg/ml].
# (§4) A complete growth inhibition could not be achieved in this case. For determining the minimum inhibition concentration, the following microorganisms were used: • 1. Staphylococcus aureus ATCC 25923 • 2. Enterococcus faecalis ATCC 51299 (vancomycin-resistant) • 3. Streptococcus pneumoniae DSM 11865 (penicillin-resistant) • 4. Escherichia coli ATCC 25922 • 5. Pseudomonas aeruginosa ATCC 9027 • 6. Klebsiella pneumoniae ATCC 10031 • 7. Candida albicans ATCC 10231
# [2] = system: Streptococcus pneumoniae DSM 11865 (penicillin-resistant); conditions: DSM 11865, 2 h
# Text: as §1, §2, §3, §4
# [3] = system: Escherichia coli ATCC 25922; conditions: ATCC 25922, 2 h
# Text: as §1, §2, §3, §4
# [4] = system: Candida albicans ATCC 10231; conditions: for minimum inhibition concentration: ATCC 10231, 2 h; for peptide concentration giving 75% inhibition of growth (value in parentheses): Mueller Hinton Broth, complete growth inhibition not achieved
# Text: as §1, §2, §3, §4
# [5] = system: Klebsiella pneumoniae ATCC 10031; conditions: ATCC 10031, 2 h
# Text: as §1, §2, §3, §4
# [6] = system: Staphylococcus aureus ATCC 25923; conditions: ATCC 25923, 2 h
# Text: as §1, §2, §3, §4
# [7] = system: Pseudomonas aeruginosa ATCC 9027; conditions: Mueller Hinton Broth; complete growth inhibition not achieved
# Text: as §1, §2
# The antibiotic activity of bolisin analogues was examined by determining the minimum inhibition concentration. The minimum inhibition concentration of an analogue designates the lowest peptide concentration which is required to inhibit the growth of microorganisms completely after an incubation time of 18±2 h. This method allows to obtain a quantitative result about the antimicrobial potency of the peptides. These examinations were performed by analogy with the recommendations (M7-A3) edited by the NCCLS (National Committee for Clinical Laboratory Standards) by applying a dilution test in a liquid medium using chemically synthesized peptides (peptide sequences according to claims 1 to 3). Mueller Hinton Broth was used as the test medium according to the NCCLS recommendations unless indicated otherwise. […] The minimum inhibition concentrations are stated in [μg/ml].
# as §4
Substance,minimum inhibition concentration [1] [µg/mL],minimum inhibition concentration [2] [µg/mL],minimum inhibition concentration [3] [µg/mL],minimum inhibition concentration [4] [µg/mL],minimum inhibition concentration [5] [µg/mL],minimum inhibition concentration [6] [µg/mL],peptide concentration giving 75% inhibition of growth (value in parentheses) [7],peptide concentration giving 75% inhibition of growth (value in parentheses) [4]
"YIVYKIRWAWKRSKALK-OH [BOL-47, YIVYKIRWAWKRSKALK]",25,18.75,18.75,18.75,9.375,18.75,(25) μg/ml,–
"YIVYKIRSAWKRWKAL [BOL-67, YIVYKIRSAWKRWKAL]",100,100,25,18.75,37.5,25,(50) μg/ml,–
"YIVYKIRSARKRWKALK-OH [BOL-46, YIVYKIRSARKRWKALK]",200,200,200,150,150,300,(100) μg/ml,–
"YIVYKIRSAKKRKKALK-OH [BOL-56, YIVYKIRSAKKRKKALK]",>300,>300,>300,–,300,>300,(200) μg/ml,(300) μg/ml
"YIVYKIRSAWKRWKALK-OH [BOL-45, YIVYKIRSAWKRWKALK]",100,100,12.5,18.75,4.7,18.75,(25) μg/ml,–
"YIVYKIRWAKKRKKALK-OH [BOL-59, YIVYKIRWAKKRKKALK]",50,50,150,–,18.75,50,(18.75) μg/ml,(9.375) μg/ml
"YIVRKIRSAWKRRKALK-OH [BOL-80, YIVRKIRSAWKRRKALK]",>300,>300,>300,37.5,150,>300,(18.75) μg/ml,–
"YIVYKIRSAWKRRK-OH [BOL-69, YIVYKIRSAWKRRK]",150,200,150,37.5,300,300,(200) μg/ml,–
"KYIVYKIRSAWKRSKALK-OH [BOL-85, KYIVYKIRSAWKRSKALK]",300,300,>300,75,150,>300,(37.5) μg/ml,–
"YIVYKIRWARKRRK-OH [BOL-73, YIVYKIRWARKRRK]",25,18.75,50,9.375,18.75,37.5,(9.375) μg/ml,–
"YIVYKIRRAWKRWKALK-OH [BOL-55, YIVYKIRRAWKRWKALK]",50,37.5,12.5,9.375,3.125,12.5,(9.375) μg/ml,–
"YIVWKIRSAWKRWKALK-OH [BOL-82, YIVWKIRSAWKRWKALK]",75,37.5,18.75,9.375,12.5,18.75,(9.375) μg/ml,–
"YIVYKIRRAWKRSKALK-OH [BOL-53, YIVYKIRRAWKRSKALK]",200,200,200,–,100,150,(75) μg/ml,(37.5) μg/ml
"YIVYKIRSAWKRWK-OH [BOL-70, YIVYKIRSAWKRWK]",150,150,100,37.5,75,100,(100) μg/ml,–
"KYIVYKIRSARKRRKALK-OH [BOL-84, KYIVYKIRSARKRRKALK]",>300,300,>300,37.5,75,>300,(75) μg/ml,–
"YIVYKIRSAWKRKKALK-OH [BOL-58, YIVYKIRSAWKRKKALK]",>300,300,>300,–,100,>300,(100) μg/ml,(75) μg/ml
"YIVYKIRSAKKRWKALK-OH [BOL-57, YIVYKIRSAKKRWKALK]",>300,>300,>300,300,300,>300,(200) μg/ml,–
"YIVYKIRSARKRWKAL [BOL-68, YIVYKIRSARKRWKAL]",200,300,200,200,300,200,(200) μg/ml,–
"YIVYKIRWARKRRKAL [BOL-72, YIVYKIRWARKRRKAL]",25,18.75,100,18.75,18.75,75,(12.5) μg/ml,–
"KYIVYKIRWARKRRKALK-OH [BOL-87, KYIVYKIRWARKRRKALK]",37.5,9.375,18.75,9.375,9.375,9.375,(9.375) μg/ml,–
